Blank lines part the entries; values can stand above or below the compound they belong to.
Experiments:
full-length human TSSK2 = target: T1, full-length human TSSK2 (Homo sapiens, UniProt Q96PF2); test: Mobility shift assay: TSSK2 phosphorylation of 5-FAM-GS peptide; assay type: biochemical; details: for fold reduction in TSSK2 activity: relative to compound 18; for TSSK2 inhibitor confirmed in concentration-response experiments after HTS: HTS at 10 μM, cherry-picked compounds from DMSO stocks
T1 sequence (Q96PF2 1-358): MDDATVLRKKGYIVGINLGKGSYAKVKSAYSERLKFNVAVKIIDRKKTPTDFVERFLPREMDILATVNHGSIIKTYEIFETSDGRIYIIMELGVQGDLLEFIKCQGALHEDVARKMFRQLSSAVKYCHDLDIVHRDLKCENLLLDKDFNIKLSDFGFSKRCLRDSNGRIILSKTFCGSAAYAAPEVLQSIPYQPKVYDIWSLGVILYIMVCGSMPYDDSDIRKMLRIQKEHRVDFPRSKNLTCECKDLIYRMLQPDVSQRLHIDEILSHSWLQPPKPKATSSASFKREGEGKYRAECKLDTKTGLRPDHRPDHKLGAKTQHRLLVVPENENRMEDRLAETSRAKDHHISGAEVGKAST

TSSK1 = target: T2, TSSK1 (Homo sapiens, UniProt Q9BXA7); test: TSSK family member inhibition, TSSK1; assay type: biochemical
T2 sequence (Q9BXA7 1-367): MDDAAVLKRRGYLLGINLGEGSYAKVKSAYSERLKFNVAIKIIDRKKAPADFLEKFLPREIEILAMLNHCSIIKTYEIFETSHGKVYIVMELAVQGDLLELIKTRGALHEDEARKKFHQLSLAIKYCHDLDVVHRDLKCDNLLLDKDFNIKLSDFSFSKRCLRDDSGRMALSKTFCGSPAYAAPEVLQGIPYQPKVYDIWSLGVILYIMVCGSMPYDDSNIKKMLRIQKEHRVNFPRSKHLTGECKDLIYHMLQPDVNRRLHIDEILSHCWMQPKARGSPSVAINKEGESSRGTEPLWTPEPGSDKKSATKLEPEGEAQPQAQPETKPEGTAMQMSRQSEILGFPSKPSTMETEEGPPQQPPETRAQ

TSSK6 = TSSK6 (Homo sapiens, UniProt Q9BXA6); test: TSSK family member inhibition, TSSK6; assay type: biochemical
369 wild-type kinases = test: Kinome profiling at Reaction Biology Corp.; assay type: biochemical; details: 100 nM
TSSK3 = test: TSSK family member inhibition, TSSK3; assay type: biochemical
[1] = target: focal adhesion kinase (FAK); details: patent literature, Supplementary Table 2; ref 13p; cited from earlier work
[2] = test system: insulin-like growth factor 1 receptor (IGF-1R); details: cited from earlier work
insulin receptor = details: read-out: insulin receptor IC50; Supplementary Table 2; ref 13a; cited from earlier work
CLK2 = details: read-out: CLK2 IC50; Supplementary Table 2; ref 13a; cited from earlier work
LTK = details: read-out: LTK IC50; Supplementary Table 2; ref 13a; cited from earlier work
GRK1 = test: Reported GRK inhibition; assay type: biochemical; details: GRK data ref 10d
[3] = test system: insulin-like growth factor 1 receptor (IGF-1R); test: Reported IGF-1R inhibition; assay type: biochemical
[4] = test system: kinases (PKIS profiling panel); details: at 100 nM; ref profiling data provided by GSK supporting the PKIS collections; cited from earlier work
Tie2 = details: ref 13b; cited from earlier work
[5] = test system: anaplastic lymphoma kinase (ALK); details: cited from earlier work
LRRK2 = details: ref 13c; cited from earlier work
FLT3 = details: ref 13b; cited from earlier work

Sequence of TSSK6 (Q9BXA6 whole entry): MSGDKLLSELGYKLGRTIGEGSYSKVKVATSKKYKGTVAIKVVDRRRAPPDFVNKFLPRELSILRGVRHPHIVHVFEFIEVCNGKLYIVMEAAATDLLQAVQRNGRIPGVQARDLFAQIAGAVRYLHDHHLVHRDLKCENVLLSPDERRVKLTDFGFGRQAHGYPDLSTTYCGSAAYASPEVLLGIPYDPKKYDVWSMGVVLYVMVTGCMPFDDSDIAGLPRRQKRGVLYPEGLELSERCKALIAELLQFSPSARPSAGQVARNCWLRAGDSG

fold reduction in TSSK2 activity (full-length human TSSK2): < 2 fold
fold more potent at inhibiting TSSK1 than TSSK2 (TSSK1): > 40 fold
rank order potency at TSSK isoforms (TSSK1): TSSK1 > TSSK2 > TSSK3 > TSSK6
activity at TSSK6 (TSSK6): almost inactive
fold selective for TSSK1 over TSSK6 (TSSK6): ~100,000 fold
SMILES: CNS(=O)(=O)c1ccccc1Nc1nc(Nc2ccc(C3CCN(C)CC3)cc2OC)ncc1Cl [Compound 19, 2-[[5-chloro-2-[2-methoxy-4-(1-methylpiperidin-4-yl)anilino]pyrimidin-4-yl]amino]-N-methylbenzenesulfonamide]
number of 369 kinases inhibited to a greater extent than TSSK2 (369 wild-type kinases): 62
fold more potent at TSSK1 than TSSK3 (TSSK3): 800 fold

SMILES: CNS(=O)(=O)c1ccccc1Nc1nc(Nc2ccc(N3CCN(C)CC3)cc2OC)ncc1Br [Compound 17]
FAK IC50 [1]: low nanomolar
potency for inhibiting IGF-1R ([2]; compared with FAK, ref 13p): substantially less potent

SMILES: COc1cc(N2CCC(O)CC2)ccc1Nc1nc(Nc2ccccc2S(=O)(=O)C(C)C)c2[nH]cnc2n1 [Compound 35]
IC50 (insulin receptor): 20 to 40 nM
IC50 (CLK2): 20 to 40 nM
IC50 (LTK): 20 to 40 nM
IC50 ([2]; read-out: IGF-1R IC50, Supplementary Table 2, ref 13a): 20 to 40 nM

SMILES: O=c1[nH]c2ccc(Cl)cc2c(N[C@@H]2CN3CCC2CC3)c1-c1nc2ccccc2[nH]1 [CHIR-124]
TSSK2 inhibitor confirmed in concentration-response experiments after HTS (full-length human TSSK2): active

SMILES: CNS(=O)(=O)c1ccccc1Nc1nc(Nc2ccc(N3CCN(C)CC3)cc2OC)ncc1Cl [Compound 18]
FAK IC50 [1]: low nanomolar

TSSK2 inhibitor confirmed in concentration-response experiments after HTS (full-length human TSSK2): active
SMILES: CC(=O)NCC(=O)N1[C@@H]2CC[C@H]1c1ccc(Nc3ncc(C(F)(F)F)c(NC4CCC4)n3)cc12 [PF-03814735]

TSSK2 inhibitor confirmed in concentration-response experiments after HTS (full-length human TSSK2): active
SMILES: CCn1c(-c2nonc2N)nc2c(C#CC(C)(C)O)nc(O[C@@H](CN)c3ccccc3)cc21 [GSK1007102B]

fold more potent inhibitors of IGF-1 than of TSSK2 [3]: ≥ 100 fold
SMILES: COc1cc2c(cc1Nc1nc(Nc3ccsc3C(N)=O)c3cc[nH]c3n1)N(C(=O)CN(C)C)CCC2(C)C [Compound 10]
fold selective for TSSK2 over GRK1 (GRK1): > 5 fold
number of kinases inhibited by > 50% [4]: 15 – 20

SMILES: COc1ccc([C@@H]2CC(=O)c3c(O)cc(O[C@@H]4O[C@H](CO[C@@H]5O[C@@H](C)[C@H](O)[C@@H](O)[C@H]5O)[C@@H](O)[C@H](O)[C@H]4O)cc3O2)cc1O [hesperidin]
TSSK2 inhibitor confirmed in concentration-response experiments after HTS (full-length human TSSK2): active

SMILES: COc1cc(N2CCC(N3CCN(C)CC3)CC2)ccc1Nc1ncc(Cl)c(Nc2ccccc2S(=O)(=O)C(C)C)n1 [Compound 22]
activity at Tie2 (Tie2): low nanomolar
fold reduction in TSSK2 activity (full-length human TSSK2): ~ 2 fold
activity at ALK [5]: low nanomolar
activity at LRRK2 (LRRK2): low nanomolar
activity at FLT3 (FLT3): low nanomolar

From publication PMC5962959 (ChemMedChem, 2017)
